Patent US10512673B2, “Use of peptide-based inhibitors of the stat3-IL10 pathway for treating bacterial infection and granulomatous disease” (The United States of America, as Represented by the …, priority 2015, dated 2019)
Entries after “also recorded” stand apart in the source; their conditions may differ. Where no end group is shown, it is not given here. [ ]: non-standard residue; d: D form. The star is where a group is joined. Palmitoyl = CCCCCCCCCCCCCCCC(=O)*

Tests used:
[1] = tested on: bcl-2; test: qRT-PCR of bcl-2 transcript in lungs; format: in vivo, C57BL/6 mice; details: 100 μg/dose
Description: (§1) The upper right lobe of the lungs from each mouse were homogenized in Trizol (Invitrogen) using Next Advance bullet blender (Averill Park, N.Y.) and frozen at −80° C. immediately. RNA was extracted following the manufacturer's protocol. Trizol DNA was digested with RQ1 RNase-free DNase (Promega, Madison, Wis.) and RNA was re-isolated using Trizol. Finally, the concentration of RNA in each sample was measured by spectrophotometry and the RNA was reverse transcribed with M-Mulv (New England Bio Labs, Ipswich, Mass.) and random hexamers (Roche, Basel, Switzerland).
(§2) When lung homogenates from each mouse were used to determine the levels of expression of Bcl-2 and Atg-5 protein using ELISA, the results were similar to those obtained by qRT-PCR.

[2] = tested on: Mycobacterium tuberculosis (Erdman strain); details: in vivo
[3] = tested on: IFNγ; test: Cytometric bead array for IFNγ in lung homogenates; format: in vivo, C57BL/6 mice; details: CBA, 100 μg/dose, vs control mice
[4] = tested on: nos2; test: RT-PCR of nos2 transcript in lungs; format: in vivo, C57BL/6 mice
[5] = tested on: Il-10; design: species or system C57BL/6 mice; details: mouse, in vivo
[6] = tested on: IL-12p40; test: Cytometric bead array for IL-12p40 in lung homogenates; format: in vivo, C57BL/6 mice; details: CBA, 100 μg/dose, vs control mice
[7] = tested on: arg1; test: Arginase activity in lung homogenates; format: in vivo, C57BL/6 mice; details: 100 μg/dose, vs untreated infected mice
Description: (§3) The quantification of end effector molecules and enzymes involved in the host antimicrobial activity in the lungs of mice were performed using lung homogenates obtained as indicated above. Lung homogenate supernatants were used in a Griess reaction (G 7921, Molecular probes, Invitrogen, Eugene, Oreg.), Arginase assay (Bioassay Systems, DARG-200), NADPH (Bioassay Systems, ECNP-100), and lysozyme (Molecular Probes E-22013).
The level of arginase activity in each lung homogenate was performed using the Quanti-Chrom Arginase Assay Kit (Bio Assay Systems, Hayward, Calif.). Briefly, protein concentration was normalized to 100 μg/ml. As a control, an aliquot of normalized protein was heat-inactivated at 90° C. for 10 min. 40 μl of untreated or heat-inactivated sample was incubated at 37° C. for 60 min with 10 μl of 5× reagent. Thereafter, the reaction was processed as recommended by the manufacturer and analyzed in a plate reader (Bio-Rad, Hercules, Calif.) at an absorbance of 430 nm. The absorbance of the heat-inactivated sample was subtracted from the respective untreated sample and then compared to urea standards. Activity of the arginase was reported in mU/mg of protein.

[8] = tested on: lysozyme; test: Lysozyme assay in lung homogenates; format: in vivo, C57BL/6 mice; details: 100 μg/dose, vs untreated infected mice
Description: as §3
The Lysozyme assay was performed as per manufacturer's instructions. Briefly, experimental samples were first diluted in 1× reaction buffer. A volume of 50 μl was used for each reaction. Then, 50 μl of the 50 μg/ml DQ lysozyme substrate were added to each microplate well containing the experimental or the standard curve samples. The reaction mix was then incubated at 37° C. for 30 min protected from light. The fluorescence in each of the samples was measured at absorption maxima at ˜494 nm and fluorescence emission maxima at ˜518 nm.

[9] = tested on: NADPH; test: NADPH assay in lung homogenates; format: in vivo, C57BL/6 mice; details: 100 μg/dose, vs untreated infected mice
Description: as §3
For the NADPH assay, each lung homogenate was mixed in a 1.5 mL Eppendorf tube with 100 μL NADPH extraction buffer for NADPH determination. Extracts then were heated at 60° C. for 5 min and then 20 μl assay buffer and 100 μl of the opposite extraction buffer were added to neutralize the extracts. Samples were briefly vortexed and centrifuged at 13,000 rpm for 5 min. The resulting supernatant was used for NADPH assays. 40 μl of standards were then transferred into wells of a clear bottom 96-well plate. For each well of the reaction, 80 μL working reagent were added per well quickly. Optical density for time “zero” (OD0) optical density after 30 min incubation (OD30) at room temperature were read at 565 nm (520-600 nm).

[10] = tested on: beclin-1; test: qRT-PCR of beclin-1 transcript in lungs; format: in vivo, C57BL/6 mice; details: 100 μg/dose
Description: as §1, §2

[11] = tested on: Il-10; test: Cytometric bead array for IL-10 in lung homogenates; design: species or system C57BL/6 mice; details: mouse, in vivo
[12] = tested on: TNFα; test: Cytometric bead array for TNFα in lung homogenates; format: in vivo, C57BL/6 mice; details: CBA, 100 μg/dose, vs control mice
[13] = tested on: atg5; test: qRT-PCR of atg5 transcript in lungs; format: in vivo, C57BL/6 mice; details: 100 μg/dose
Description: as §1, §2

[14] = tested on: bax; test: qRT-PCR of bax transcript in lungs; format: in vivo, C57BL/6 mice; details: 100 μg/dose
Description: as §1, §2

[15] = tested on: pSTAT3 (pY705); test: ELISA for pSTAT3 in lung homogenates; format: in vivo, C57BL/6 mice; details: after two weeks of treatment (100 μg/dose), vs untreated infected mice
Description: Lung homogenates were screened for pSTAT3 (pY705 (tyrosine 705)) by ELISA following manufacturer's recommendations (Life Technologies). Briefly, the lung homogenates were re-suspended in the cell extraction buffer and incubated during 30 minutes on ice with intermittent vortexing followed by pelleting of the cell debris. Supernatants from each sample were collected and screened for their content of STAT3 (pY705). Standards were prepared using purified recombinant phosphorylated STAT3 protein. Thereafter, 100 μl of standards and diluted samples or control aliquots were distributed into microtiter wells and were incubated in the wells pre-coated with anti-pSTAT3 antibody. The reactions were developed using the detection anti-pSTAT3 antibody followed by 30 minutes incubation at RT with anti-rabbit IgG HRP. The reactions were visualized by incubation with a chromogenic substrate of HRP during 30 minutes at room temperature. The reactions were stopped with 100 μl of stop solution added to each well. Absorbance for each well was read at 450 nm.

[16] = tested on: nos2; test: NOS2 activity in lung homogenates (Griess reaction); format: in vivo, C57BL/6 mice; details: 100 μg/dose, vs untreated infected mice
Description: as §3
For the Griess reaction, reagents were acclimated at room temperature for 20 min prior to the assay. Thereafter, the samples were centrifuged at 1200 rpm for 2 min and the Griess reaction was performed following the manufacturer's instructions. Briefly, samples and prepared standards were diluted following the manufacturer's instructions with distilled sterile water in a 96 well plate. 20 μl of Griess reaction were added to each reaction well. Samples and standards were incubated for 30 minutes in the dark. Thereafter, samples were read using a Biotech Synergy 2 Multi-Mode Micro Plate Reader [U5] spectrophotometer at 546 nm.

[17] = tested on: stat3; design: species or system C57BL/6 mice; details: mouse, in vivo
[18] = tested on: arg1; test: RT-PCR of arg1 transcript in lungs; format: in vivo, C57BL/6 mice
[19] = tested on: pSTAT3; test: Immunohistochemistry for pSTAT3 in lung tissue sections; design: species or system C57BL/6 mice; details: mouse, in vivo
[20] = tested on: granuloma lesions in the lungs; test: Lung histopathology (H&E); design: species or system C57BL/6 mice; details: mouse, in vivo
[21] = tested on: IL-6; test: Cytometric bead array for IL-6 in lung homogenates; format: in vivo, C57BL/6 mice; details: CBA, 100 μg/dose, vs control mice
[22] = RT-PCR, lungs, 100 μg/dose, vs control mice

Substance	expression of bcl-2 transcript (in words) [1]	change of pulmonary CFU (in words) [2]	level of IFNγ expression in the lungs [3]	pulmonary expression of il-10 transcript [5]	expression level of IL-12p40 in the lungs [6]	Arg1 activity [7]	lysozyme activity (DQ substrate) [8]	NADPH activity (pyridine nucleotide) [9]	expression of beclin-1 transcript (in words) [10]	level of IL-10 in lung homogenates [11]	level of TNFα in the lungs [12]	expression of atg5 transcript (in words) [13]	expression of bax transcript (in words) [14]	level of pSTAT3 in lung homogenates [15]	NOS2 activity (concentration of NO) [16]	pulmonary expression of stat3 transcript [17]	further results
Ac-EETQLSPKTSGFGSDTSGHLK-E-Pal (Ac-[dE][dE][dT][dQ][dL][dS][dP][dK][dT][dS]G[dF]G[dS][dD][dT][dS]G[dH][dL][dK](Palmitoyl); not fully specified; also: name K-E-Pal / C-terminal Glu-palmitoyl: Glu between Lys and palmitoyl?) [IL10R1-14]	reduced expression	slight increase; also recorded: only the group of mice receiving the peptide inhibitor ST3-H2A2 had reduced the pulmonary CFU	increased and up	no significant changes	down	increased	lower or no increase	lower or no increase	reduced expression	no significant changes	reduced	increased expression	reduced expression	no significant changes	lower or no increase	no significant changes	increase in nos2 transcript expression [4, 22]: 2 fold; increase in arg1 transcript expression [18, 22]: 10 fold
ε-Pal-KLVTLPLISSLQSSE-NH2 (K(Palmitoyl)LVTLPLISSLQSSE-NH2; N-terminus assumed; SMILES CCCCCCCCCCCCCCCC(=O)NCCCC[C@H](N)C(=O)N[C@@H](CC(C)C)C(=O)N[C@H](C(=O)N[C@H](C(=O)N[C@@H](CC(C)C)C(=O)N1CCC[C@H]1C(=O)N[C@@H](CC(C)C)C(=O)N[C@H](C(=O)N[C@@H](CO)C(=O)N[C@@H](CO)C(=O)N[C@@H](CC(C)C)C(=O)N[C@@H](CCC(N)=O)C(=O)N[C@@H](CO)C(=O)N[C@@H](CO)C(=O)N[C@@H](CCC(=O)O)C(N)=O)[C@@H](C)CC)[C@@H](C)O)C(C)C) [IL10R1-7]	reduced expression	only the group of mice receiving the peptide inhibitor ST3-H2A2 had reduced the pulmonary CFU	decreased and down	lower levels	decreased and up	reduced or not changed	significantly elevated	significantly elevated	reduced expression	lower levels	reduced and down	increased expression	reduced expression	lower levels	significantly elevated	lower levels	reduction of pulmonary bacterial load [2]: 0.6; mRNA nos2 expression (in words) ([4]; mouse, in vivo): reduction in transcript expression for nos2 and arg1 but not significantly for nos2; pSTAT3 staining by IHC in lung tissue sections [19]: reduced levels of pSTAT3 staining in the center of the granuloma lesions; histopathology of H&E stained lung sections [20]: increased numbers of clusters and highly packed lymphocytes; expression level of IL-6 in the lungs [21]: decreased; mRNA arg1 expression (in words) ([18]; mouse, in vivo): reduction
